Read-outs that look alike come from different tables or passages of the source.
Columns and labels:
[1] = test system: CDK4/6 protein; assay: Western-blot determination of CDK4/6 protein degradation (DC50) in T-47D cells; type: cell-based, human; details: 24 h drug treatment, read-out: DC50(nM)/T-47D cell line
[2] = test system: CDK4/6 protein; assay: Western-blot determination of CDK4/6 protein degradation (DC50) in Jurkat cells; type: cell-based; details: read-out: DC50(nM)/Jurkat cell line
[3] = target: T1, BRD4 (Homo sapiens, UniProt O60885); assay: Western-blot degradation of BRD4 in MV-4-11 cells; type: cell-based; details: 24 hours
Excerpt: (§1) Western-Blot Determination of the Half-Degradation Concentration (DC50) of the PROTAD Compounds on the Target Proteins
(§2) The supernatant was aspirated as total cell protein extracted.

[4] = target: T2, BRD2 (Homo sapiens, UniProt P25440); assay: Western-blot half-degradation concentration (DC50) / degradation of BRD2 in MV-4-11 cells; type: cell-based; details: 24 hours; for DC50: Western-blot, read-out: DC50 (nM)/MV-4-11 cell line BRD2 degradation
Excerpt: as §1, §2

[5] = target: T1, BRD4; assay: Western-blot detection of BRD4 protein degradation (FIGS. 16a-c); type: cell-based
[6] = target: T2, BRD2; assay: Western-blot detection of BRD2 protein degradation (FIGS. 16a-c); type: cell-based
[7] = test system: MDA-MB-468 cells; assay: Half inhibitory concentration (IC50) on BET-expressing tumor cells, CCK-8, MDA-MB-468; type: cell-based; details: Homo sapiens, 48/72 h, read-out: IC50 (nM)/MDA-MB-468 cell line
Protocol: (§3) BET-expressing cells MV-4-11 cells (human B granulocytic leukemia cells), MDA-MB-231 cells (human breast cancer cells), MDA-MB-468 cells (human breast cancer cells), MDA-MB-453 Cells (human breast cancer cells), MM1S cells (myeloma (immunoglobulin A lambda), B lymphoblasts) and SR cells (human large cell immunoblast lymphoma) were purchased from the American Type Culture Collection (ATCC).
(§4) The cells used in this present disclosure were cultured in a 37° C. incubator containing 5% CO2. The complete cell culture medium was RPMI 1640/IMDM/DMEM medium with 10% fetal bovine serum, and the final concentrations of penicillin and streptomycin were 100 U/mL, respectively. All cells were tested negative for mycoplasma with mycoplasma detection kit before the experiment.
(§5) Determination of the Half Inhibitory Concentration (IC50) of PROTAD Compounds on Tumor Cells
(§6) MV-411 cells, MM1S cells and SR cells were seeded in 100 μL IMDM/RPMI1640/DMEM complete medium at a density of 15000/10000 cells/well; MDA-MB-231 cells, MDA-MB-468 cells, and MDA-MB453 cells were seeded in 100 μL IMDM/RPMI1640/DMEM complete medium at a density of 3000/5000 cells/well, respectively. 100 μL of the inoculated cells were treated with 0.5 μL diluted PROTAD compounds of the present disclosure to be tested at 10 successively decreasing concentrations (starting at the highest concentration of 10 μM; 5-fold serial dilutions). After the cells were treated with the tested drugs 48/72 h, the cell viability was determined according to the CCK-8 reagent manual. The negative control was DMSO, and the positive control was a commercial inhibitor. After CCK-8 treatment for 2 h, the value of O.D.450 was measured using a microplate reader.

[8] = test system: MM1S cells; assay: Half inhibitory concentration (IC50) on BET-expressing tumor cells, CCK-8, MM1S; type: cell-based; details: Homo sapiens, MM1.S, 48/72 h, read-out: IC50 (nM)/MM1S cell line
Summary of the method: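 Cells treated for 48/72 h with ten 5-fold dilutions from 10 μM top, DMSO as negative control. Viability read by CCK-8 (2 h, OD450) and IC50 derived from the concentration series; suspension lines seeded at 15000/10000 cells/well, MDA-MB lines at 3000/5000 cells/well.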

[9] = test system: MDA-MB-231 cells; assay: Half inhibitory concentration (IC50) on BET-expressing tumor cells, CCK-8, MDA-MB-231; type: cell-based; details: Homo sapiens, 48/72 h, read-out: IC50 (nM)/MDA-MB-231 cell line
Protocol: as §3, §4, §5, §6

[10] = test system: MDA-MB-453 cells; assay: Half inhibitory concentration (IC50) on BET-expressing tumor cells, CCK-8, MDA-MB-453; type: cell-based, human; details: 48/72 h, read-out: IC50 (nM)/MDA-MB-453 cell line
Protocol: as §3, §4, §5, §6

[11] = test system: SR cells; assay: Half inhibitory concentration (IC50) on BET-expressing tumor cells, CCK-8, SR; type: cell-based; details: Homo sapiens, 48/72 h, read-out: IC50 (nM)/SR cell line
Protocol: as §3, §4, §5, §6

[12] = test system: MV-4-11 cells; assay: Half inhibitory concentration (IC50) on BET-expressing tumor cells, CCK-8, MV-4-11; details: Homo sapiens, MV4-11, read-out: IC50 (nM)/MV-4-11 cell line, MV-4-11 cells, 48/72 h, CCK-8
[13] = Homo sapiens, MDA-MB-453, MDA-MB-453 cells

T2 sequence (P25440 whole entry): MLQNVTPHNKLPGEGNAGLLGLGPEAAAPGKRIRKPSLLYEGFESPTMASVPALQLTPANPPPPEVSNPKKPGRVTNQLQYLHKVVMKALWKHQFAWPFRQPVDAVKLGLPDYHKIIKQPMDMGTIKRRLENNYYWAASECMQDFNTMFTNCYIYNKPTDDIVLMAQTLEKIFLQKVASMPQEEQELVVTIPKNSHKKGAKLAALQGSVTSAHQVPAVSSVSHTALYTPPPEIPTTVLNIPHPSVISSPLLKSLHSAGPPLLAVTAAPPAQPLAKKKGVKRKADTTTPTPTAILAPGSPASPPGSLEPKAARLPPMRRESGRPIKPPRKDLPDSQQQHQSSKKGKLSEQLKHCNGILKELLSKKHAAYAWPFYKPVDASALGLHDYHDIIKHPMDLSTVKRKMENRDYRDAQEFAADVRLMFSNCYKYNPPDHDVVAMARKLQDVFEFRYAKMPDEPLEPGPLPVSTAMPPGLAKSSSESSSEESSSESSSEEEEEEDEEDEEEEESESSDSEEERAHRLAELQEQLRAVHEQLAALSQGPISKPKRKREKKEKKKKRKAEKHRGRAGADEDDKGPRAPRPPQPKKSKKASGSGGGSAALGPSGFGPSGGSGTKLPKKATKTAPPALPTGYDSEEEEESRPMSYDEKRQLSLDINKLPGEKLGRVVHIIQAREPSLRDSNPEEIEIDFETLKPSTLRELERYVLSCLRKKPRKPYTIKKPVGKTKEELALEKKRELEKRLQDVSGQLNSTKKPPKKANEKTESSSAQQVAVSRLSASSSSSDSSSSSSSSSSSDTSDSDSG

CC(=O)c1c(C)c2cnc(Nc3ccc(N4CCN(C(=O)CCCCCCSc5cccc6c5C(=O)N(C5CCC(=O)NC5=O)C6=O)CC4)cn3)nc2n(C2CCCC2)c1=O (stereo not shown) [SIAIS184090, 4-((7-(4-(6-((6-acetyl-8-cyclopentyl-5-methyl-7-oxo-7,8-dihydropyrido[2,3-d]pyrimidin-2-yl)amino)pyridin-3-yl)piperazin-1-yl)-7-oxoheptyl)thio)-2-(2,6-dioxopiperidin-3-yl)isoindoline-1,3-dione] showed a DC50 [1] of 1 to 10 nM and a DC50 [2] of 1 to 10 nM.
Cc1sc2c(c1C)C(c1ccc(Cl)cc1)=N[C@@H](CC(=O)NCCCCCNc1cccc3c1CN(C1CCC(=O)NC1=O)C3=O)c1nnc(C)n1-2 (stereo partly drawn) [SIAIS213110, 2-((S)-4-(4-chlorophenyl)-2,3,9-trimethyl-6H-thieno[3,2-f][1,2,4]triazolo[4,3-a][1,4]diazepin-6-yl)-N-(5-((2-(2,6-dioxopiperidin-3-yl)-1-oxoisoindolin-4-yl)amino)pentyl)acetamide] was tested, and the “degradation of BRD4 protein (Western-blot)” value [3] was “significantly weaker ability to degrade BRD2 and BRD4 proteins”, the “degradation of BRD2 protein (Western-blot)” value [4] was “significantly weaker ability to degrade BRD2 and BRD4 proteins” and the “ability to degrade BRD4 protein (Western-blot, in words)” value [5] was “significantly weaker ability to degrade”. The “ability to degrade BRD2 protein (Western-blot, in words)” value [6] was “significantly weaker ability to degrade”.
Cc1sc2c(c1C)C(c1ccc(Cl)cc1)=N[C@@H](CC(=O)NCCCCCSc1cccc3c1CN(C1CCC(=O)NC1=O)C3=O)c1nnc(C)n1-2 (stereo partly drawn) [SIAIS171142, 2-((S)-4-(4-chlorophenyl)-2,3,9-trimethyl-6H-thieno[3,2-f][1,2,4]triazolo[4,3-a][1,4]diazepin-6-yl)-N-(5-((2-(2,6-dioxopiperidin-3-yl)-1-oxoisoindolin-4-yl)thio)pentyl)acetamide] showed an IC50 [7] of 6.1 ± 0.4 nM, an IC50 [8] of 0.31 nM and an IC50 [9] of 17.7 ± 7.6 nM. For the same compound, the IC50 [10, 13] was 37.4 nM, the IC50 ([10]; MDA-MB-453 cells) was 37.1 nM and the IC50 [11] was 2.42 nM. The IC50 [12] was 0.08 ± 0.03 nM.
Cc1sc2c(c1C)C(c1ccc(Cl)cc1)=N[C@@H](CC(=O)NCCCCCSc1cccc3c1C(=O)N(C1CCC(=O)NC1=O)C3=O)c1nnc(C)n1-2 (stereo partly drawn) [SIAIS171038, 2-((S)-4-(4-chlorophenyl)-2,3,9-trimethyl-6H-thieno[3,2-f][1,2,4]triazolo[4,3-a][1,4]diazepin-6-yl)-N-(5-((2-(2,6-dioxopiperidin-3-yl)-1,3-dioxoisoindolin-4-yl)thio)pentyl)acetamide] was tested, and the IC50 [7] was 61 ± 8 nM, the IC50 [8] was 7.77 nM and the IC50 [9] was 182 ± 89 nM. It also gave a DC50 [4] of less than 0.4 nM, an IC50 [10, 13] of 135 nM and an IC50 ([10]; MDA-MB-453 cells) of 230 nM. The IC50 [12] was 6.2 ± 3 nM.
Compound Cc1sc2c(c1C)C(c1ccc(Cl)cc1)=N[C@@H](CC(=O)NCCCCCCSc1cccc3c1CN(C1CCC(=O)NC1=O)C3=O)c1nnc(C)n1-2 (stereo partly drawn) [SIAIS171143, 2-((S)-4-(4-chlorophenyl)-2,3,9-trimethyl-6H-thieno[3,2-f][1,2,4]triazolo[4,3-a][1,4]diazepin-6-yl)-N-(6-((2-(2,6-dioxopiperidin-3-yl)-1-oxoisoindolin-4-yl)thio)hexyl)acetamide] has an IC50 [7] of 376 ± 55 nM, an IC50 [8] of 0.32 nM and an IC50 [9] of 313 ± 309 nM. For the same compound, the IC50 [11] was 1.48 nM and the IC50 [12] was 0.3 nM.
Compound Cc1sc2c(c1C)C(c1ccc(Cl)cc1)=N[C@@H](CC(=O)NCCCCSc1cccc3c1C(=O)N(C1CCC(=O)NC1=O)C3=O)c1nnc(C)n1-2 (stereo partly drawn) [SIAIS171037, 2-((S)-4-(4-chlorophenyl)-2,3,9-trimethyl-6H-thieno[3,2-f][1,2,4]triazolo[4,3-a][1,4]diazepin-6-yl)-N-(4-((2-(2,6-dioxopiperidin-3-yl)-1,3-dioxoisoindolin-4-yl)thio)butyl)acetamide] has an IC50 [7] of 52.5 ± 24 nM, an IC50 [8] of 5.36 nM and an IC50 [9] of 88 ± 38 nM. For the same compound, the DC50 [4] was less than 0.4 nM, the IC50 [10, 13] was 154 nM and the IC50 ([10]; MDA-MB-453 cells) was 226 nM. It also gave an IC50 [12] of 6.2 ± 4.1 nM.
Cc1sc2c(c1C)C(c1ccc(Cl)cc1)=N[C@@H](CC(=O)NCCCCSc1cccc3c1CN(C1CCC(=O)NC1=O)C3=O)c1nnc(C)n1-2 (stereo partly drawn) [SIAIS171141, 2-((S)-4-(4-chlorophenyl)-2,3,9-trimethyl-6H-thieno[3,2-f][1,2,4]triazolo[4,3-a][1,4]diazepin-6-yl)-N-(4-((2-(2,6-dioxopiperidin-3-yl)-1-oxoisoindolin-4-yl)thio)butyl)acetamide] gave an IC50 [7] of 10 ± 2 nM, an IC50 [8] of 0.24 nM and an IC50 [9] of 19.9 ± 9.2 nM. It also gave an IC50 [10, 13] of 112 nM, an IC50 ([10]; MDA-MB-453 cells) of 98 nM and an IC50 [11] of 3.91 nM. The IC50 [12] was 0.25 ± 0.2 nM.
With CC(=O)c1c(C)c2cnc(Nc3ccc(N4CCN(C(=O)CSc5cccc6c5C(=O)N(C5CCC(=O)NC5=O)C6=O)CC4)cn3)nc2n(C2CCCC2)c1=O (stereo not shown) [SIAIS151046, 4-((2-(4-(6-((6-acetyl-8-cyclopentyl-5-methyl-7-oxo-7,8-dihydropyrido[2,3-d]pyrimidin-2-yl)amino)pyridin-3-yl)piperazin-1-yl)-2-oxoethyl)thio)-2-(2,6-dioxopiperidin-3-yl)isoindoline-1,3-dione] the DC50 [1] was 1 to 10 nM and the DC50 [2] was 1 to 10 nM.
For CC(=O)c1c(C)c2cnc(Nc3ccc(N4CCN(C(=O)COCCSc5cccc6c5C(=O)N(C5CCC(=O)NC5=O)C6=O)CC4)cn3)nc2n(C2CCCC2)c1=O (stereo not shown) [SIAIS184091, 4-((2-(2-(4-(6-((6-acetyl-8-cyclopentyl-5-methyl-7-oxo-7,8-dihydropyrido[2,3-d]pyrimidin-2-yl)amino)pyridin-3-yl)piperazin-1-yl)-2-oxoethoxy)ethyl)thio)-2-(2,6-dioxopiperidin-3-yl)isoindoline-1,3-dione], the DC50 [1] was 1 to 10 nM and the DC50 [2] was 1 to 10 nM.
In the case of Cc1sc2c(c1C)C(c1ccc(Cl)cc1)=N[C@@H](CC(=O)NCCCCCOc1cccc3c1CN(C1CCC(=O)NC1=O)C3=O)c1nnc(C)n1-2 (stereo partly drawn) [SIAIS271066, 2-((S)-4-(4-chlorophenyl)-2,3,9-trimethyl-6H-thieno[3,2-f][1,2,4]triazolo[4,3-a][1,4]diazepin-6-yl)-N-(5-((2-(2,6-dioxopiperidin-3-yl)-1-oxoisoindolin-4-yl)oxy)pentyl)acetamide], the “degradation of BRD4 protein (Western-blot)” value [3] is reported as “significantly weaker ability to degrade BRD2 and BRD4 proteins”, the “degradation of BRD2 protein (Western-blot)” value [4] is reported as “significantly weaker ability to degrade BRD2 and BRD4 proteins” and the “ability to degrade BRD4 protein (Western-blot, in words)” value [5] is reported as “significantly weaker ability to degrade”. For the same compound, the “ability to degrade BRD2 protein (Western-blot, in words)” value [6] was “significantly weaker ability to degrade”.
Work on CC(=O)c1c(C)c2cnc(Nc3ccc(N4CCN(C(=O)CCCCSc5cccc6c5CN(C5CCC(=O)NC5=O)C6=O)CC4)cn3)nc2n(C2CCCC2)c1=O (stereo not shown) [SIAIS184092, 3-(4-((5-(4-(6-((6-acetyl-8-cyclopentyl-5-methyl-7-oxo-7,8-dihydropyrido[2,3-d]pyrimidin-2-yl)amino)pyridin-3-yl)piperazin-1-yl)-5-oxopentyl)thio)-1-oxoisoindolin-2-yl)piperidine-2,6-dione] yielded a DC50 [1] of less than 0.1 nM and a DC50 [2] of less than 1 nM.
